Measurements as given in patent publication US12410164B2, “Heterocyclic compounds and medical use thereof” (FONDAZIONE TELETHON, priority 2018, dated 2025).
Entries after “also recorded” stand apart in the source; their conditions may differ.

Key:
F508del-CFTR [1] = molecular target: T1, F508del-CFTR (Homo sapiens, UniProt P13569, DEL508-508); assay: HS-YFP kinetic fluorescence (iodide quenching rate) assay in CFBE41o− cells; assay type: cell-based; set-up: expressed in transfected cells; host or cells: CFBE41o- cells with expression of F508del-CFTR and HS-YFP (generated as in Sondo et al. 2011); conditions: for AI (%) additivity index / AI additivity index: compound at 10 μM plus VX-809; for AI additivity index: Table 3
In short: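 CFBE41o- cells co-expressing F508del-CFTR and HS-YFP, treated 24 h with compound (0.1-0.2% DMSO), then stimulated with 20 μM forskolin plus 50 μM genistein. Fluorescence was read for 14 s during NaI injection. Background-subtracted, normalized traces were fitted exponentially to give maximum quenching rate (QR).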

F508del-CFTR [2] = molecular target: T1, F508del-CFTR; assay: Analysis of F508del-CFTR maturation by immunoblot in CFBE41o− cells; assay type: cell-based; set-up: expressed in transfected cells; host or cells: CFBE41o- cells with expression of F508del-CFTR and HS-YFP (generated as in Sondo et al. 2011); conditions: compound 10 μM plus VX-809 1 μM, 24 hr
Experimental: CFBE41o− cells were grown to confluence on 60-mm diameter dishes and lysed in RIPA buffer containing a complete protease inhibitor (Roche; cat. n. 11697498001). Cell lysates were centrifuged at 12000 rpm at 4° C. for 10 min. Supernatant protein concentration was calculated using the BCA assay (Euroclone; cat. n. EMP014500) following the manufacturer's instructions. Equal amounts of total protein content (30 μg) were separated onto 10% Criterion TGX Precast gels (Bio-rad laboratories Inc.; cat. n. 4561033), transferred to nitrocellulose membrane with Trans-Blot Turbo system (Bio-rad Laboratories Inc.) and analyzed by Western blotting. Primary antibody for CFTR was anti-CFTR 596 (University of North Carolina at Chapel Hill, and Cystic Fibrosis Foundation Therapeutics, see Cui L, et al. J. Mol Biol 2007, 365, 981-994) at 1:5000 dilution. As secondary antibody, anti-mouse HRP-conjugated Ab 97023 (Abcam) was used at 1:10000 dilution. Results were subsequently visualized by chemiluminescence using the SuperSignal West Femto Substrate (Thermo Scientific) and the Molecular Imager ChemiDoc XRS System.
To analyze the mechanism of action of the compounds of the invention, two types of experiments were carried out. In the first type of experiment, the electrophoretic mobility of F508del-CFTR protein was determined by immunoblot assay. This is a frequently used method to assess the effect of correctors at the protein level. In control conditions, F508del-CFTR migrates predominantly as a single band of 150 kDa called “band B”. This is the immature form of the protein residing in the endoplasmic reticulum. When the protein folding and stability is improved by correctors, an additional band appears at higher molecular weight (170 kDa). This is the so-called band C, which represents the mature form of the CFTR protein that has reached the Golgi compartment and acquired full glycosylation.

T1 sequence (P13569 with tags, fused parts or gaps DEL508-508): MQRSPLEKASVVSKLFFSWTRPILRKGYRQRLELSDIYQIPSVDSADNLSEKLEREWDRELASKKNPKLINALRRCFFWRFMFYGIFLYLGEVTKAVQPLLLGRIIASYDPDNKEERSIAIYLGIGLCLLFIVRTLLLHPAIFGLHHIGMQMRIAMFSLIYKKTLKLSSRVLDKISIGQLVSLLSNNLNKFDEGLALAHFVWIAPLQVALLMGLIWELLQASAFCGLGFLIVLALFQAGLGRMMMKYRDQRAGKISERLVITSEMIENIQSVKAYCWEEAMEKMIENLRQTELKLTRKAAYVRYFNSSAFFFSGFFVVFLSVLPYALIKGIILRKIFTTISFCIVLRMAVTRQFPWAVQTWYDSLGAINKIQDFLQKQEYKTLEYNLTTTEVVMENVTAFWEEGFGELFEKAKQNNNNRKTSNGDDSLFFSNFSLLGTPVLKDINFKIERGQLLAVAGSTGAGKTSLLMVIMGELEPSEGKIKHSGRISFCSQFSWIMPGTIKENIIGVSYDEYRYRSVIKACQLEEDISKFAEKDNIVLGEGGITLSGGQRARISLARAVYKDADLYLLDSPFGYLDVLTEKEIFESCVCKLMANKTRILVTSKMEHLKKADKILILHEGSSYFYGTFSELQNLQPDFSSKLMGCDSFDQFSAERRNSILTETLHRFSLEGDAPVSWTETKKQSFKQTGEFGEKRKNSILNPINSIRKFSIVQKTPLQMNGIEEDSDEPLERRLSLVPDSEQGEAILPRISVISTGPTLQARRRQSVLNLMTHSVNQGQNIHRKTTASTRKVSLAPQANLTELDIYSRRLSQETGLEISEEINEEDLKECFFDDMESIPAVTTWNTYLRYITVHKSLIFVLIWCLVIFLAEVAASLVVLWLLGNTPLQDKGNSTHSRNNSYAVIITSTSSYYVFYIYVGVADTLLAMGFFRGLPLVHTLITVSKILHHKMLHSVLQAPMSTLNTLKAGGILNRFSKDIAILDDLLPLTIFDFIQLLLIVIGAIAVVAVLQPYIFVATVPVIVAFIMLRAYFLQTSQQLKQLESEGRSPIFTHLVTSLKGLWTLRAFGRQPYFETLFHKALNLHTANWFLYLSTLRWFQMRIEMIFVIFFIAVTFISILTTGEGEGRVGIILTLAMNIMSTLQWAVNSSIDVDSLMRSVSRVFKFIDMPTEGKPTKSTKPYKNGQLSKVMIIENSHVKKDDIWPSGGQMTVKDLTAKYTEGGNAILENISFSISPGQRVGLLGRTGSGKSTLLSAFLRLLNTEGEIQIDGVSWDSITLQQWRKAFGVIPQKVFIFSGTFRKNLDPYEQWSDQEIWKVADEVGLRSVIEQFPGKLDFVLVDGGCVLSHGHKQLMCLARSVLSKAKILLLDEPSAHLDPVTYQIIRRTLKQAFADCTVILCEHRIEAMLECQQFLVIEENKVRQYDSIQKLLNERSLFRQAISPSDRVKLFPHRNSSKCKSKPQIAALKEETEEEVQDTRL

Cc1ccc(Cn2c(C(=O)OC(C)C)c(Br)c3c2-c2[nH]c(=O)c(S(=O)(=O)c4ccccc4)cc2CC3)cc1 [PP034, Propan-2-yl 7-(benzenesulfonyl)-3-bromo-1-[(4-methylphenyl)methyl]-8-oxo-4,5,8,9-tetrahydro-1H-pyrrolo[3,2-h]quinoline-2-carboxylate]
AI (%) additivity index (F508del-CFTR [1]; Table 1, (QRTOT − QRVX)/QRVX, HS-YFP assay): 261% | structure-activity comparison of corrector potency/activity (F508del-CFTR [1]; relative to the analogue): Increased activity | band C (mature form) expression versus VX-809 alone (F508del-CFTR [2]): markedly enhances the abundance of the mature form of the protein; also recorded: marked increase in band C expression

CCOC(=O)c1c2c(nn1Cc1ccc(C)c(C)c1)-c1[nH]c(=O)c(S(=O)(=O)c3ccccc3)cc1CC2 [PZ8, Ethyl 7-(benzenesulfonyl)-2-[(3,4-dimethylphenyl)methyl]-8-oxo-4,5,8,9-tetrahydro-2H-pyrazolo[4,3-h]quinoline-3-carboxylate]
AI (%) additivity index (F508del-CFTR [1]; Table 6, (QRTOT-QRVX)/QRVX): 21%

CCOC(=O)c1c(Br)cc2n1CCc1cc(S(=O)(=O)c3ccccc3)c(=O)[nH]c1-2 [QZN2, Ethyl 3-(benzenesulfonyl)-9-bromo-2-oxo-1,2,5,6-tetrahydropyrrolo[1,2-h][1,7]naphthyridine-8-carboxylate]
AI (%) additivity index (F508del-CFTR [1]; Table 4, (QRTOT − QRVX)/QRVX): 19%

CCOC(=O)c1ccc2n1CCCc1cc(S(=O)(=O)c3ccccc3)c(=O)[nH]c1-2 [QZN5, Ethyl 3-(benzenesulfonyl)-2-oxo-1,5,6,7-tetrahydro-2H-pyrido[2,3-c]pyrrolo[1,2-a]azepine-9-carboxylate]
AI (%) additivity index (F508del-CFTR [1]; Table 4, (QRTOT − QRVX)/QRVX): 19%

CCOC(=O)c1c(Br)cc2n1CCCc1cc(S(=O)(=O)c3ccccc3)c(=O)[nH]c1-2 [QZN6, Ethyl 3-(benzenesulfonyl)-10-bromo-2-oxo-1,5,6,7-tetrahydro-2H-pyrido[2,3-c]pyrrolo[1,2-a]azepine-9-carboxylate]
AI (%) additivity index (F508del-CFTR [1]; Table 4, (QRTOT − QRVX)/QRVX): 136%

CC(C)OC(=O)c1c(Br)cc2n1CCc1cc(S(=O)(=O)c3ccccc3)c(=O)[nH]c1-2 [QZN10, Propan-2-yl 3-(benzenesulfonyl)-9-bromo-2-oxo-1,2,5,6-tetrahydropyrrolo[1,2-h][1,7]naphthyridine-8-carboxylate]
AI (%) additivity index (F508del-CFTR [1]; Table 4, (QRTOT − QRVX)/QRVX): 101%

CC(C)OC(=O)c1ccc2n1CCCc1cc(S(=O)(=O)c3ccccc3)c(=O)[nH]c1-2 [QZN13, Propan-2-yl 3-(benzenesulfonyl)-2-oxo-1,5,6,7-tetrahydro-2H-pyrido[2,3-c]pyrrolo[1,2-a]azepine-9-carboxylate]
AI (%) additivity index (F508del-CFTR [1]; Table 4, (QRTOT − QRVX)/QRVX): 8%

CC(C)OC(=O)c1c(Br)cc2n1CCCc1cc(S(=O)(=O)c3ccccc3)c(=O)[nH]c1-2 [QZN14, Propan-2-yl 3-(benzenesulfonyl)-10-bromo-2-oxo-1,5,6,7-tetrahydro-2H-pyrido[2,3-c]pyrrolo[1,2-a]azepine-9-carboxylate]
AI (%) additivity index (F508del-CFTR [1]; Table 4, (QRTOT − QRVX)/QRVX): 141%

CCOC(=O)c1ccc2n1CCc1cnc(NC3CCCC3)nc1-2 [QZQ14, Ethyl 2-(cyclopentylamino)-5,6-dihydropyrimido[5,4-g]indolizine-8-carboxylate]
AI (%) additivity index (F508del-CFTR [1]; Table 5, (QRTOT-QRVX)/QRVX): 18%

CC(C)OC(=O)c1ccc2n1CCc1cnc(NC3CCCC3)nc1-2 [QZQ20, Propan-2-yl 2-(cyclopentylamino)-5,6-dihydropyrimido[5,4-g]indolizine-8-carboxylate]
AI (%) additivity index (F508del-CFTR [1]; Table 5, (QRTOT-QRVX)/QRVX): 5%

CC(C)OC(=O)c1ccc2n1CCCc1cnc(N)nc1-2 [QZQ21, Propan-2-yl 2-amino-6,7-dihydro-5H-pyrimido[4,5-c]pyrrolo[1,2-a]azepine-9-carboxylate]
AI (%) additivity index (F508del-CFTR [1]; Table 5, (QRTOT-QRVX)/QRVX): 6%

CC(=O)Nc1ncc2c(n1)-c1ccc(C(=O)OC(C)C)n1CCC2 [QZQ26, Propan-2-yl 2-acetamido-6,7-dihydro-5H-pyrimido[4,5-c]pyrrolo[1,2-a]azepine-9-carboxylate]
AI (%) additivity index (F508del-CFTR [1]; Table 5, (QRTOT-QRVX)/QRVX): 2%

CCOC(=O)c1c(Br)c2c(n1Cc1cccc(C)c1)-c1nc(N)ncc1CC2 [SVQ4, Ethyl 2-amino-7-bromo-9-[(3-methylphenyl)methyl]-6,9-dihydro-5H-pyrrolo[3,2-h]quinazoline-8-carboxylate]
AI additivity index (F508del-CFTR [1]; (QRTOT-QRVX)/QRVX): 4%

CCOC(=O)c1cc2c(n1Cc1ccc(C)cc1)-c1nc(NS(=O)(=O)c3ccccc3)ncc1CC2 [SVQ9, Ethyl 2-[(benzenesulfonyl)amino]-9-[(4-methylphenyl)methyl]-6,9-dihydro-5H-pyrrolo[3,2-h]quinazoline-8-carboxylate]
AI additivity index (F508del-CFTR [1]; (QRTOT-QRVX)/QRVX): 98%

CCOC(=O)c1c(Br)c2c(n1Cc1ccc(C)cc1)-c1nc(NS(=O)(=O)c3ccccc3)ncc1CC2 [SVQ10, Ethyl 2-[(benzenesulfonyl)amino]-7-bromo-9-[(4-methylphenyl)methyl]-6,9-dihydro-5H-pyrrolo[3,2-h]quinazoline-8-carboxylate]
AI additivity index (F508del-CFTR [1]; (QRTOT-QRVX)/QRVX): 134%

CCOC(=O)c1cc2c(n1Cc1cccc(C)c1)-c1nc(NS(=O)(=O)c3ccccc3)ncc1CC2 [SVQ11, Ethyl 2-[(benzenesulfonyl)amino]-9-[(3-methylphenyl)methyl]-6,9-dihydro-5H-pyrrolo[3,2-h]quinazoline-8-carboxylate]
AI additivity index (F508del-CFTR [1]; (QRTOT-QRVX)/QRVX): 151%

CCOC(=O)c1c(Br)c2c(n1Cc1cccc(C)c1)-c1nc(NS(=O)(=O)c3ccccc3)ncc1CC2 [SVQ12, Ethyl 2-[(benzenesulfonyl)amino]-7-bromo-9-[(3-methylphenyl)methyl]-6,9-dihydro-5H-pyrrolo[3,2-h]quinazoline-8-carboxylate]
AI additivity index (F508del-CFTR [1]; (QRTOT-QRVX)/QRVX): 152%

CCOC(=O)c1cc2c(n1Cc1ccc(C)c(C)c1)-c1nc(NS(=O)(=O)c3ccccc3)ncc1CC2 [SVQ13, Ethyl 2-[(benzenesulfonyl)amino]-9-[(3,4-dimethylphenyl)methyl]-6,9-dihydro-5H-pyrrolo[3,2-h]quinazoline-8-carboxylate]
AI additivity index (F508del-CFTR [1]; (QRTOT-QRVX)/QRVX): 86%

CCOC(=O)c1c(Br)c2c(n1Cc1ccc(C)c(C)c1)-c1nc(NS(=O)(=O)c3ccccc3)ncc1CC2 [SVQ14, Ethyl 2-[(benzenesulfonyl)amino]-7-bromo-9-[(3,4-dimethylphenyl)methyl]-6,9-dihydro-5H-pyrrolo[3,2-h]quinazoline-8-carboxylate]
AI additivity index (F508del-CFTR [1]; (QRTOT-QRVX)/QRVX): 128%

CCOC(=O)c1cc2c(n1Cc1ccc(Br)cc1)-c1nc(NS(=O)(=O)c3ccccc3)ncc1CC2 [SVQ15, Ethyl 2-[(benzenesulfonyl)amino]-9-[(4-bromophenyl)methyl]-6,9-dihydro-5H-pyrrolo[3,2-h]quinazoline-8-carboxylate]
AI additivity index (F508del-CFTR [1]; (QRTOT-QRVX)/QRVX): 100%

CCOC(=O)c1c(Br)c2c(n1Cc1ccc(Br)cc1)-c1nc(NS(=O)(=O)c3ccccc3)ncc1CC2 [SVQ16, Ethyl 2-[(benzenesulfonyl)amino]-7-bromo-9-[(4-bromophenyl)methyl]-6,9-dihydro-5H-pyrrolo[3,2-h]quinazoline-8-carboxylate]
AI additivity index (F508del-CFTR [1]; (QRTOT-QRVX)/QRVX): 98%

Cc1cc(=O)oc2c1cc(C)c1occ(C)c12 [TMA, 4,6,4′-trimethylangelicin, reference compound]
corrective activity of TMA (F508del-CFTR [1]; 50-500 nM, 1 and 10 μM, with and without VX-809 1 μM, FIG. 4): ineffective at all concentrations
